# Assay results reported in patent publication US11969499B2, “Hydrogel delivery of sting immunotherapy for treatment cancer” (WILLIAM MARSH RICE UNIVERSITY, priority 2017, dated 2024).
# “Also recorded” adds a separate entry of the source. Like-named read-outs stand apart in the source and are kept apart here.
# Experiments:
# [1] = tested on: MOC2-E6E7 cells; experiment: In vitro live/dead cell viability in unloaded and CDN-loaded MDP hydrogel; format: cell-based; details: for percent cell viability per mm3 of hydrogel vs no CDN / percent cell viability per mm3 of hydrogel: Day 7; for cytocompatibility of unloaded hydrogel: no CDN, cells in 3-D gel, up to 7 days
# Procedure: Preparation of cell—laden hydrogel for in vitro viability. MDP gel formulations with MOC2-E6E7 cells were prepared by diluting a cell suspension of 2,000,000 cells/mL in 2×HBSS with an equal volume of 4×CDN. The resulting suspension was then added to an equal volume of sterile 2 wt. % peptide in 298 mM sucrose and mixed to produce final samples of approximately 35,000 cells per 70 μL of 1 wt. %, 149 mM sucrose gel. Gels were then transferred into 0.4 cm 2 wells of Lab-Tek 16 well glass chamber slides (Thermo Fischer, Rochester, NY), pipetted to produce 70 μL pucks with flat profiles. Samples were allowed to shear recover for 5-10 mM before adding 200 μL cell media on top of each gel. The cell media was changed every 2 days, taking care to not dislodge the hydrogel material.
# Cell viability was determined at each desired time point by performing live/dead assays as described below. Live/dead staining solution was prepared in DPBS with 2 μM Calcein AM for live cells (Life Technologies), 4 μM Ethidium homodimer for dead cells (Life Technologies), and 5 μg/mL Hoechst 33342 for nuclei (MP Biomedicals, Solon, OH). […] Cell media was removed and the gels were washed with PBS. Samples were then stained with 100 μL of prepared solution by incubating at RT for 15-30 mM. Following staining, gels were placed in PBS for immediate analysis by confocal microscopy. Gels were analyzed by z-stack imaging (100 μm) using a Nikon A1 Confocal Microscope with 20× air and 40× water objectives (405 nm blue channel laser, 488 nm green channel laser, 561 nm red channel laser). Image processing was done using NIS Elements, and live/dead cell counting was performed using the cell identification tool in Imaris 3D/4D Image Processing software, manually verified with nuclear counts when resolution allowed.
# [2] = tested on: MOC2-E6E7 tumors; experiment: Tumor growth and survival study (Examples 3-4); format: in vivo, C57BL/6 mice
# Procedure: Tumor growth and survival study. For tumor experiments, 6-8 week old wild-type C57BL/6 female mice were maintained in a pathogen-free environment for the study. All protocols were in accordance with the guidelines for humane treatment of laboratory animals by the National Institutes of Health, the Animal Welfare Committee and the Center for Laboratory Animal Medicine and Care (CLAMC) at the University of Texas Health Science Center at Houston. Mice were injected with MOC2-E6E7 tumor cells on day 0 into the maxillary oral vestibule (30,000 cells in 30 μL volume), followed by controls or gel injections loaded with or without CDN on day 3 in the same oral cavity location (20 lag CDN per 30 μL injection). Tumor growth was measured using calipers and body weight was taken in all subjects two to three times per week. Photographs were also obtained. Kaplan-Meier survival and tumor growth curve analyses were performed from data obtained. Mice that maintained tumor clearance for 100 days were re-challenged with MOC2-E6E7 tumor cells again at day 105 and monitored similarly. All endpoints in tumor growth curve and survival data are a result of euthanasia due to excessive tumor burden, defined as tumor reaching 12 mm, tumor ulceration, or a weight loss of greater than 20%. The inventors observed no signs of unexpected disease or discomfort in the mice over the course of the experiments.
# Statistical methods. Statistical analyses for Kaplan-Meier survival curves were performed using the log-rank/Mantel-Cox test with GraphPad Prism (GraphPad, San Diego, CA). For tumor growth curves, the Wilcoxon rank sum test was used to compare tumor size between STINGel and other groups. No adjustment for multiple testing was made because the study is novel and exploratory. All p values are two-sided and p values less than 0.05 were considered as significant. All statistical analyses were performed using the SAS software (version 9.4, the SAS Institute, Cary, NC).
# [3] = tested on: MOC-2-E6E7 tumors; experiment: MOC-2-E6E7 orthotopic murine model of HNSCC, survival (Example 2, FIG. 2E); design: species or system C57BL/6 mice; details: mouse, in vivo
# Procedure: MOC-2-E6E7 Orthotopic murine model of HNSCC. 6 week-old male and female C57BL/6 mice will be inoculated in the left maxillary vestibule with MOC-2-E6E7 cells (30,000 cells in 30 μl volume). Animals will be monitored using a body condition scoring system to ensure they maintain a healthy weight and show no obvious signs of distress. At Day 14 post-tumor inoculation, STINGel (20 jug CDN in 30 μl of MDP hydrogel) or controls (as above) are injected into the oral tumor site. Animal studies will be done in triplicate, independent experiments for significance. Between-group differences in flow cytometric data will be statistically evaluated with one-way ANOVA and post-hoc analysis using Tukey's method. Differences between groups will be considered significant if p<0.05. In efficacy studies, Kaplan-Meier survival curves will be compared using the log-rank/Mantel-Cox test and tumor growth curves will be analyzed using the Koziol method (Koziol et al., 1981; 1982).
# [4] = tested on: non-T cell-inflamed head and neck tumors; details: in vivo; cited from earlier work
# [5] = tested on: MOC1 tumors; details: multiple intratumoral injections of CDN alone, cited from earlier work
# [6] = tested on: MOC2 tumors; details: multiple CDN injections; cited from earlier work
# [7] = CDN drug release kinetics from hydrogels (UV absorbance at 259 nm); format: physicochemical; details: for CDN release compared to collagen (FIG. 5B): 30 μL gels, 910 μM CDN, under 200 μL HBSS, 24 h; for release profile of gels (FIG. 3A): CDN release, preliminary data
# Procedure: CDN release kinetics. 30 μL CDN-loaded gel aliquots are deposited into 96 well plates with 200 μL of buffer added to the top of the gels at time point t=0. For all kinetics experiments, a Thermo Scientific Nanodrop 2000C Spectrophotometer is used to measure UV absorbance at 259 nm, the characteristic wavelength of maximum absorbance for the adenine nucleobases present in the CDN. See FIG. 1A for an example of preliminary release kinetics data.
# CDN drug release kinetics. To study the kinetics of CDN release from STINGel vs. collagen gel, 30 μL CDN-loaded gel aliquots were deposited into Falcon® 96 well flat bottom polystyrene plates (Becton Dickinson Labware, Franklin Lakes, NJ). For each experiment, cylindrical pucks of the 30 μL gel aliquots were created in each well, allowing the pipetted gels to shear recover for at least 5 mM before adding 200 μL of buffer (1×HBSS for STINGel, lx DPBS for collagen, according to gelation requirements) to the top of the gels at what was defined as t=0 for the start of kinetics experiments. The buffer height was approximately 2.5 mm, the gel thickness approximately 0.5 mm, and the gel's solvent exposed surface area approximately 12.6 mm^2.
# A Thermo Scientific Nanodrop 2000C Spectrophotometer was used to measure UV absorbance at 259 nm, the characteristic wavelength of maximum absorbance for the CDN's adenine nucleobases. An extinction coefficient of 24,000 M^−1 cm^−1 at 259 nm was used. Absorbance measurements were taken by removal of 1 μL aliquots from the surface of the buffers, measuring the increase in absorbance over time. Release of CDN was measured over the course of the first 24 hours and converted to total percent released, with additional measurements also made at 48 and 72 hours to confirm that the samples had reached equilibrium.
# [8] = In vivo subcutaneous hydrogel implants, histology (Masson's trichrome, H&E); details: 910 μM CDN where loaded
# Procedure: In vivo subcutaneous implants. 200 μL subcutaneous injections are made in two separate 1-inch spaced sites on the dorsal flank. At tested time points mice are euthanized and the dorsal skin around the entire implant is removed, washed with PBS, and fixed in formalin for 24 hours prior to tissue processing (Wellings & Atherton, 1997; Guy & Fields, 1997). Details are provided in the Vertebrate Animal section. Tissue is processed to paraffin blocks, sectioned at 7 μm, deparaffinized and stained for cellular infiltrate using hematoxylin and eosin (H&E) and Masson's Trichrome. Here, and elsewhere, male and female populations will be assessed combined as well as separately to determine if sexual dichotomy exists in the biomaterial interaction and regenerative response.
# Subcutaneous experiments and histology. Male/female mice (C57BL/6 strain) of age 8-12 weeks were obtained for subcutaneous experiments, which were conducted with Rice IACUC approval and according to NIH guidelines. Mice were injected with 40 μL CDN-loaded hydrogel (910 μM CDN) or 100 μL unloaded hydrogel in each of four separate sites in the subcutaneous space of the dorsal flank. At days 3 and 7 the mice were euthanized and the dorsal skin around the entire implant was removed, fixed overnight in 10% neutral buffered formalin, processed and paraffin embedded by the Baylor College of Medicine Pathology Core, and finally sectioned at 5 μm thickness for Masson's trichrome staining and hematoxylin and eosin (H&E) staining (FIGS. 14A-F and 16A-F).
# [9] = tested on: CD45+/CD11b+/CD11c+ dendritic cells; experiment: Flow cytometric analysis of implant infiltration; format: in vivo, mice; details: for recruitment of immune cells to the hydrogel in vivo: subcutaneous flank of mice, within 3 days
# Procedure: Flow cytometric analysis of implant infiltration. Implanted gels are harvested from mice, digested and processed into single cell suspension. Cells are incubated with blocking antibody, followed by addition of antibodies to create three panels: myeloid cells (CD45, Gr-1, Ly-6C, CD11b, F4/80), lymphoid cells (CD45, NK-1.1, CD11b, CD3e, CD8a, CD4, CD19) and dendritic cells (CD45, CD8a, CD11b, CD11c, PDCA-1 and CD103). For each time point five mice with two hydrogel boluses are assessed for an n of 10.
# [10] = 30 μL gels loaded with 910 μM CDN under 200 μL buffer
molecule,measurement,setting,value
"Nc1ncnc2c1ncn2[C@@H]1O[C@@H]2COP(O)(=S)O[C@@H]3C(O)[C@@H](COP(O)(=S)O[C@H]2[C@H]1O)O[C@H]3n1cnc2c(N)ncnc21 (stereo partly drawn) [CDN, dithio-(RP,RP)-[cyclic[A(2′,5′)pA(3′,5′)p]]]",percent cell viability per mm3 of hydrogel vs no CDN,[1]; 5 μM CDN,equivalent
same,percent cell viability per mm3 of hydrogel vs no CDN,[1]; 57 μM CDN,equivalent
same,percent cell viability per mm3 of hydrogel vs no CDN,[1]; 114 μM CDN,equivalent
same,percent cell viability per mm3 of hydrogel,[1]; 228 μM CDN,reduced cell viability
same,percent cell viability per mm3 of hydrogel,[1]; 455 μM CDN,no cell viability
same,percent cell viability per mm3 of hydrogel,[1]; 910 μM CDN,no cell viability
same,max tolerable dose cells can experience in their local environment,[1]; without the massive cell death observed at 455 μM and above,228 µM
same,mice surviving until the endpoint of the study,"[2]; 140 days post-tumor cell inoculation, single injection day 3, 20 μg CDN in 30 μL, n=10",10%
same,effect on tumor growth,[2]; single injection day 3 post inoculation,ineffective in preventing tumor growth
same,mortality before day 60,[3],100%
same,efficacy,[4],completely ineffective
same,efficacy / tumor rejection,[5],only to a subset of MOC1 tumor rejection
same,efficacy / tumor rejection,[5]; listed as CDN alone,minimal efficacy
same,tumor rejection,[6],unsuccessful MOC2 tumor rejection
E2(SL)6E2 (SEQ ID NO: 3) (EESLSLSLSLSLSLEE) [additional multidomain peptide hydrogel with glutamate termini],CDN release compared to collagen (FIG. 5B),[7],better (slower) release compared to collagen
same,release profile of gels (FIG. 3A),[7],intermediate release rates
"K2(SL)6K2 (SEQ ID NO: 1) (Ac-KKSLSLSLSLSLSLKK-NH2) [MDP gel, self-assembling multidomain peptide hydrogel, acetylated N-terminus and C-terminal amide]","decrease in release rate compared to collagen control gels, factor",[7]; [10],8
same,maximum release of loaded CDN (plateau/equilibrium),[7]; [10],approximately 68%
same,release rate in the initial linear release phase,[7]; [10],1.0 nmol CDN/hour
same,time of CDN release until equilibrium with surrounding buffer,[7]; [10],14 to 15 h
same,release profile of gels (FIG. 3A),[7],intermediate release rates
same,cytocompatibility of unloaded hydrogel,[1]; listed as Lys-MDP,substantial MOC-2-E6E7 proliferation (green cells) & minimal cell death
same,cytocompatibility of unloaded hydrogel,[1]; listed as MDP hydrogel,not intrinsically toxic
same,cytocompatibility of unloaded hydrogel,[1]; listed as unloaded MDP gel,fully biocompatible
same,cytocompatibility of unloaded hydrogel,[1]; listed as unloaded MDP hydrogel,cells are able to survive and proliferate within the 3-D hydrogel matrix
same,cellular infiltration of implant,"[8]; 3 days post subcutaneous injection, listed as MDP control",even infiltration of cells
same,cellular infiltration of implant,"[8]; 3 days post subcutaneous injection, listed as MDP unloaded control",even infiltration of cells
same,cellular infiltration of implant,"[8]; 3 days post subcutaneous injection, listed as unloaded MDP",Uniform cellular infiltration
same,cellular infiltration of implant,[8]; 7 days post subcutaneous injection,even infiltration of cells
same,recruitment of immune cells to the hydrogel in vivo,[9]; listed as Lys-MDP,substantial population
same,recruitment of immune cells to the hydrogel in vivo,[9]; listed as MDP hydrogel,robust recruitment of immunocytes
same,CD45+/CD11b+/CD11c+ dendritic cells,"[9]; three days after subcutaneous injection, un-loaded",13.5%
same,mice maintaining tumor clearance and reaching reinoculation point,"[2]; day 105 after initial inoculation, n=10 per group",No mice
same,mortality before day 60,[3],100%
R2(SL)6R2 (SEQ ID NO: 4) (RRSLSLSLSLSLSLRR) [additional multidomain peptide hydrogel with arginine termini],CDN release compared to collagen (FIG. 5B),[7],better (slower) release compared to collagen; also recorded: the best of the group
same,release profile of gels (FIG. 3A),[7],"slowest, most prolonged release"
